From patent US4156737A, “P-Aminomethyl-benzene-sulfonamide derivatives, process for their preparation and applications thereof” (priority 1977, dated 1979)
Counter-ions that a name gives are not always drawn.

How the values were obtained:
[1] = LD50 in mice, intraperitoneal route (acute toxicity); type: in vivo; conditions: mouse, in vivo, ip; mice, intraperitoneal route
[2] = test system: mice; assay: as above; type: in vivo; conditions: for toxicity: general statement introducing LD50
[3] = test system: skin of rabbits; assay: Topical application on the skin of rabbits (tolerance); type: in vivo
From the text: (§1) High dosages of said products, suspended in suitable excipients, could be applied without any evidence of toxic symptons.
(§2) Application of said products was effected on the skin of animals both after depilation and after depilation and abrasion, so as to obtain continuous skin lesions.

[4] = test system: skin of rats; assay: Topical application on the skin of rats (tolerance); type: in vivo
From the text: as §1, §2

[5] = test system: treated animals; assay: Chronic toxicity, laboratory, organ and histological examinations of the treated animals; type: in vivo, rats and rabbits
From the text: In particular, no modification was found on examination of the weight increase, of the differential leucocyte count, of azotemia, of the transaminases and of urinary excretion.
Similarly, no modification was detected on anatomopathologic and physiological examinations conducted at the level of the main organs of the treated animals.

[6] = test system: germ strains (E. coli, Pseudomonas, Staphylococcus, Proteus, Serrata marcescens, Salmonella, Providencia); assay: Anti-bacterial activity, agar dilutions on Mueller-Hinton medium, all germ strains; type: cell-based; conditions: versus p-aminomethyl-benzene-sulfonamide
Description: (§3) Various tests were used to determine the anti-bacterial activity of the products of Examples 1 and 2 with respect to p-aminomethyl-benzene-sulfonamide. Said tests were effected according to the agar dilutions on Mueller-Hinton medium. The inoculum is prepared by means of an automatic Multipoint Inoculation apparatus, with a 24 hrs broth culture diluted to 1/10.
(§4) The test materials are suspended in a Twin solution.
(§5) The following germ strains were used: E. coli 130; E. coli 3671; E. coli K 12; E. coli 334; Pseudomonas 66/5; Pseudomonas 630412; Pseudomonas Paffoni; Staphylococcus 209 P; Staphylococcus 153; Pseudomonas vulgaris 66/24; Proteus marg. 66/68; Proteus mirab. 564; Proteus mirab. 250; Serrata marcescens 67/14; Salmonella 29582; Salmonella gr. B; Providencia 70/13.

[7] = test system: Pseudomonas; assay: Anti-bacterial activity, agar dilutions on Mueller-Hinton medium, Pseudomonas; type: cell-based
Description: as §3, §4, §5

[8] = test system: Staphylococcus; assay: Anti-bacterial activity, agar dilutions on Mueller-Hinton medium, Staphylococcus; type: cell-based
Description: as §3, §4, §5

[9] = test system: E. coli; assay: Anti-bacterial activity, agar dilutions on Mueller-Hinton medium, E. coli; type: cell-based
Description: as §3, §4, §5

[10] = test system: experimentally induced burns in male Sprague-Dawley rats; assay: Protective action on experimentally induced burns; type: in vivo; conditions: for percent death rate of the burnt animals: after 48 hrs, versus reference animals or equivalent dosages of p-aminomethyl-benzene-sulfonamide; for protection compared with p-aminomethyl-benzene-sulfonamide: local; for protection compared with p-aminomethyl-benzene-sulfonamide / protective action against experimentally induced burns: 500 mg/kg; for protective action against experimentally induced burns: prior local administration
Description: The seriousness of the lesion thus induced is evaluated by means of the intravenous injection of Evans Blue, a vital dye.

[11] = test system: holes punctured through the ears of New Zealand rabbits; assay: Action on cicatrization of holes punctured through the ears of rabbits; type: in vivo; conditions: 10% suspension applied locally around ear hole; versus reference animals or p-aminomethyl-benzene-sulfonamide
Description: To evaluate the healing action of the products of Examples 1 and 2 holes of equal diameter were punctured through the ears of New Zealand rabbits, after which the time required for cicatrization of said holes to occur was determined in untreated reference rabbits, in rabbits treated locally around the hole punctured through the ear with a 10% p-aminomethyl-benzene-sulfonamide suspension or with a suspension of identical concentration of the products of Examples 1 and 2.

[12] = Hygroscopicity and stability of the isolated powder; type: physicochemical; conditions: white powder
Description: The material is allowed to rest at a temperature of 5° C. for 24 hours, after which the resulting product is filtered off.

## NCc1ccc(S(N)(=O)=O)cc1 [Example 1, p-aminomethyl-benzene-sulfonamide, silver salt]
[1]
  LD50: 55 mg/kg
[2]
  toxicity: very low toxicity
[3]; rabbit, in vivo
  tolerance and apparent toxicity after topical application: equally well tolerated and free from any apparent toxicity
[4]; rat, in vivo
  tolerance and apparent toxicity after topical application: equally well tolerated and free from any apparent toxicity
[5]; in vivo
  histological examination of skin samples: failed to disclose any modification of inflammatory or degenerative type
[6]
  inhibiting action on the growth of the germ colonies: higher inhibiting action at lower concentrations than p-aminomethyl-benzene-sulfonamide
[7]
  susceptibility of species: particularly susceptible
[8]
  susceptibility of species: particularly susceptible
[9]
  susceptibility of species: particularly susceptible
[10]
  percent death rate of the burnt animals: lower
  protection compared with p-aminomethyl-benzene-sulfonamide: superior to that exerted by p-aminomethyl-benzene-sulfonamide
  protective action against experimentally induced burns: exerts a protective action against experimentally induced burns, by inhibiting or decreasing the intensity and the seriousness of the local lesions
[11]
  tissue regeneration and cicatrization: much more rapid than in the reference animals or in the animals treated with p-aminomethyl-benzene-sulfonamide

## p-aminomethyl-benzene-sulfonamide, zinc salt [Example 2]
[2]
  toxicity: very low toxicity
[2]; mice, intraperitoneal route
  LD50: 80 mg/kg
[3]; skin of rabbits, topical
  tolerance and apparent toxicity after topical application: equally well tolerated and free from any apparent toxicity
[4]; skin of rats, topical
  tolerance and apparent toxicity after topical application: equally well tolerated and free from any apparent toxicity
[5]; chronic topical treatment, inflammatory or degenerative modification
  histological examination of skin samples: failed to disclose any modification of inflammatory or degenerative type
[6]
  inhibiting action on the growth of the germ colonies: higher inhibiting action at lower concentrations than p-aminomethyl-benzene-sulfonamide
[7]
  susceptibility of species: particularly susceptible
[8]
  susceptibility of species: particularly susceptible
[9]
  susceptibility of species: particularly susceptible
[10]
  percent death rate of the burnt animals: lower
  protection compared with p-aminomethyl-benzene-sulfonamide: superior to that exerted by p-aminomethyl-benzene-sulfonamide
  protective action against experimentally induced burns: exerts a protective action against experimentally induced burns, by inhibiting or decreasing the intensity and the seriousness of the local lesions
[11]
  tissue regeneration and cicatrization: much more rapid than in the reference animals or in the animals treated with p-aminomethyl-benzene-sulfonamide
[12]
  hygroscopicity and stability: non-hygroscopic stable
